Earlier results, collected in US8329227B2, “Compositions for improving mental performance” (Factor Nutrition Labs, LLC, priority 2001, dated 2012).

How the values were obtained:
[1] = high or low dose versus placebo, 203 patients
[2] = healthy volunteers aged 25-40
[3] = 200 micrograms in four divided doses, fifty patients; placebo thirty-six percent
[4] = PS supplementation

CCOC(=O)C1=C[C@]2(CC)CCCN3CCc4c(n1c1ccccc41)[C@@H]32 [vinpocetine]
patients with reduced frequency or complete elimination of epileptic seizures (epileptic patients): twenty of the thirty-one
tolerability in clinical studies (human, in vivo): well tolerated
cognitive performance and overall quality of life [1]: Significantly greater improvements
memory (Steinberg Memory Test) [2]: significant memory improvement

C/C=C1\[C@H]2C=C(C)C[C@]1(N)c1ccc(=O)[nH]c1C2 [huperzine A, Huperzine A]
people with improvements in memory, cognitive function and behavior [3]: Fifty-eight

phosphatidyl serine [PS]
improvement in learning ability and memory tasks [4]: 15%
